# Laboratory results: ChEMBL document CHEMBL1201862, “PubChem BioAssay data set” (2004)
# The source made the active and inactive calls.
# What was measured:
# [1] = NIH-3T3 fibroblast cytotoxicity, dose response, cytotoxicity control, cell-based, fluorescence, Alamar Blue, secondary assay (AID 2327); assay type: functional;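 also: NIH-3T3 mouse fibroblasts cultured with fluconazole at 8 µg/mL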
# [2] = molecular target: Heat shock protein HSP 90-alpha (Homo sapiens, UniProt P07900); assay type: functional, organism-based
# [3] = molecular target: Genome polyprotein (dengue virus type 2, UniProt P29990); assay: flavivirus cap methylation enzyme inhibition – biochemical, confirmation dose response, primary screen (AID 588689); assay type: functional
# [4] = system: Vero; assay: viability of Vero cells under compound – cytotoxicity control for flavivirus capping enzyme inhibitors (AID 588742); assay type: functional; settings: Chlorocebus sabaeus
# [5] = molecular target: Serine/threonine-protein phosphatase (Homo sapiens, UniProt Q9BPW0); assay: Counterscreen for inhibitors of PP1: fluorescence-based biochemical high throughput dose response assay to identify inhibitors of Protein Phosphatase 5 (PP5). [Related pubchem assays: 2034 (Summary (PP5 inhibitors)), 1987 (PP5 inhibitors in singlate), 2235 (PP1 inhibitors in singlate)]
# Serine/threonine-protein phosphatase, sequence (Q9BPW0 whole entry): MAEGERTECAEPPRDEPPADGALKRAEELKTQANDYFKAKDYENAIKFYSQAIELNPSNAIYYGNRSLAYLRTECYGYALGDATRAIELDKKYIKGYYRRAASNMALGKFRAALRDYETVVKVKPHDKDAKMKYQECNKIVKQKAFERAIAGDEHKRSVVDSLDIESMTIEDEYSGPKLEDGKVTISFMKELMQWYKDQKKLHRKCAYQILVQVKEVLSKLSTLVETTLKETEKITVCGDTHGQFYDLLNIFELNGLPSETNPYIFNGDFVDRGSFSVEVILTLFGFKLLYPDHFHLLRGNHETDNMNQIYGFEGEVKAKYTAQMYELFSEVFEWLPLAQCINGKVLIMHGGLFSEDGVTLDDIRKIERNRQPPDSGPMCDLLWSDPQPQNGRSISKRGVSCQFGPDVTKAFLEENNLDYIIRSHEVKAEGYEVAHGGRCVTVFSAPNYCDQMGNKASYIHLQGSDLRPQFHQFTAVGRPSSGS
# [6] = molecular target: Ras and Rab interactor 1/Tyrosine-protein kinase ABL1 (Homo sapiens, UniProt P00519+Q13671); assay type: functional;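 also: biochemical TR-FRET dose-response test measuring inhibition of binding between Rin1 and Abl proteins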
# Ras and Rab interactor 1/Tyrosine-protein kinase ABL1, sequence (P00519 whole entry): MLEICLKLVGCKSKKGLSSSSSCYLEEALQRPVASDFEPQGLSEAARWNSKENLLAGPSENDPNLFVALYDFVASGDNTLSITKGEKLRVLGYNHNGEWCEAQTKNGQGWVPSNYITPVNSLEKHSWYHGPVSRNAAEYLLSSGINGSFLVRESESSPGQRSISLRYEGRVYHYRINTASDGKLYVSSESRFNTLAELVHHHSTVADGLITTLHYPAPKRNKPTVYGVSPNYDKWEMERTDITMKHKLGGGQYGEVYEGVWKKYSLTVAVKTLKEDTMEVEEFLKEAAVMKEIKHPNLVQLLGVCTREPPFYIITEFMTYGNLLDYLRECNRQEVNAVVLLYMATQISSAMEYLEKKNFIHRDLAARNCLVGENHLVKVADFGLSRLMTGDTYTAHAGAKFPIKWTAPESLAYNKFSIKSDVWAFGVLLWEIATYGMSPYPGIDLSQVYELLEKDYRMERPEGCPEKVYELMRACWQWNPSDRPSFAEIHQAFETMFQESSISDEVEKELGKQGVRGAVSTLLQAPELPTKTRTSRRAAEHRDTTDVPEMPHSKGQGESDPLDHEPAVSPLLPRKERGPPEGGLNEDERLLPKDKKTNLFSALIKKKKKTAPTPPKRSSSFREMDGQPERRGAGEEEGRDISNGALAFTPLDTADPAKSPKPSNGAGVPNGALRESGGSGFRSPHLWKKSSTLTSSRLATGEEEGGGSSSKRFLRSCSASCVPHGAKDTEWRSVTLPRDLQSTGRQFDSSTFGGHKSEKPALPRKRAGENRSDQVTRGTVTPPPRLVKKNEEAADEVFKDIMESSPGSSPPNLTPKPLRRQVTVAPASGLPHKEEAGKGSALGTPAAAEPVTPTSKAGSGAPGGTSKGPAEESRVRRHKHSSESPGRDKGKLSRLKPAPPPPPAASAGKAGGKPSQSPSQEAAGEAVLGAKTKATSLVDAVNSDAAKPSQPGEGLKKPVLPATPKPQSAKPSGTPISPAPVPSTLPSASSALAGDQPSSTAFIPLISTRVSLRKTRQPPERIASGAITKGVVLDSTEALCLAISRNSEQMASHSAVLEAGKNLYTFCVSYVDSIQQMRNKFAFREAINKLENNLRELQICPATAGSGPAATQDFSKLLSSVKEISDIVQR
# Ras and Rab interactor 1/Tyrosine-protein kinase ABL1, sequence (Q13671 whole entry): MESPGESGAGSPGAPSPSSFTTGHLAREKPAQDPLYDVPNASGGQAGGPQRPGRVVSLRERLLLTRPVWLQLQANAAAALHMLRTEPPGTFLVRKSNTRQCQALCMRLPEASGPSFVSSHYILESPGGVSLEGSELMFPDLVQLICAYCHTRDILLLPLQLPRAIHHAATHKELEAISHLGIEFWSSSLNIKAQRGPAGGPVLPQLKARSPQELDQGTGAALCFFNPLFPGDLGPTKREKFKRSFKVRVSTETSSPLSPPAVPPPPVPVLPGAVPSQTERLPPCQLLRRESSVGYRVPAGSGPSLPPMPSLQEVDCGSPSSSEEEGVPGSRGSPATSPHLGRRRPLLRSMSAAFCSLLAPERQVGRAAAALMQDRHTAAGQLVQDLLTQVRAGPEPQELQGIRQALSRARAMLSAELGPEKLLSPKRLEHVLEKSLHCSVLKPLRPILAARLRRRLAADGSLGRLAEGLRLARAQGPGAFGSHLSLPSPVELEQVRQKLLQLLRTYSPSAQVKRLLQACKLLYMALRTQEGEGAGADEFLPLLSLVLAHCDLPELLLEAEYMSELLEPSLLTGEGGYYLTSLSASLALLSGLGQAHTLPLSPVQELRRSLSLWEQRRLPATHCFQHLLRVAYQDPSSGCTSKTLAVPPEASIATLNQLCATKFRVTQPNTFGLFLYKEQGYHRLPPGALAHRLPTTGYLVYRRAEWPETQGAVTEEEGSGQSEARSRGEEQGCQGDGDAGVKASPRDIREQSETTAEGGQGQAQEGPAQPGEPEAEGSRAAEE
# [7] = molecular target: Serine/threonine-protein phosphatase PP1-alpha catalytic subunit (Homo sapiens, UniProt P62136); assay: inhibition of protein phosphatase 1 activity – biochemical, fluorescence, dose response (AID 2403);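 also: phosphatase turnover of OMFP into fluorescent 3-O-methylfluorescein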
# Serine/threonine-protein phosphatase PP1-alpha catalytic subunit, sequence (P62136 whole entry, the tested form may be a part): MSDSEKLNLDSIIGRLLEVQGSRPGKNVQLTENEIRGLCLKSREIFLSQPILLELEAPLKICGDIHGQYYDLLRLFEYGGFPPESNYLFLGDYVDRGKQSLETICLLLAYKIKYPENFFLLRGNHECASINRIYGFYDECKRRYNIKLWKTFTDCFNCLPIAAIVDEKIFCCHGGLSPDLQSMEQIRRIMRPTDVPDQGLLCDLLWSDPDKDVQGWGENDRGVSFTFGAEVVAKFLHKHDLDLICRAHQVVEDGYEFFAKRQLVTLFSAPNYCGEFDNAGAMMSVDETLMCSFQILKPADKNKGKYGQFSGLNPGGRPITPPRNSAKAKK
# [8] = molecular target: T1, Polyadenylate-binding protein 1 (Homo sapiens, UniProt P11940); assay: MLLE domain peptide-binding blockers, IC50 – biochemical, fluorescence polarization, FITC-PAM2 peptide, dose response (AID 602259); assay type: functional; settings: read-out: IC50_Mean
# T1 sequence (P11940 whole entry, the tested form may be a part): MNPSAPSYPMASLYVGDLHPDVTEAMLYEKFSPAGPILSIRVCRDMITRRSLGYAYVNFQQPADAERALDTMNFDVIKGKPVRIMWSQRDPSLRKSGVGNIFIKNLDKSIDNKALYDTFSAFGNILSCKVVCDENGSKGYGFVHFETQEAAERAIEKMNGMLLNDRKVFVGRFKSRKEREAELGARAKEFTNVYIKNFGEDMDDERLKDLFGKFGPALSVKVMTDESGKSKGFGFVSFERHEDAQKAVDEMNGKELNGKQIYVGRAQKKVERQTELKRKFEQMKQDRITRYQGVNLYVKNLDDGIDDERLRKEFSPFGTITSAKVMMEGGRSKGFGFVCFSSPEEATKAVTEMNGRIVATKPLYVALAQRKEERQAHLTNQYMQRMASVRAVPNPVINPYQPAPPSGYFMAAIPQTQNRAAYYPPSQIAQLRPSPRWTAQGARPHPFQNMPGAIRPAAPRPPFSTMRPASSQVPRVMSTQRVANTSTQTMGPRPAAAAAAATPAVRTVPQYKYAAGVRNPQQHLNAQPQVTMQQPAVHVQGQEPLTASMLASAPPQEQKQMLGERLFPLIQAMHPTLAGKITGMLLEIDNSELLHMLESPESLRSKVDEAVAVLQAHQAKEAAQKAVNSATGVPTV
# [9] = fluconazole-exposed Candida albicans growth modulators – fluorescence, retest, confirmation (AID 2467); assay type: functional, cell-based
# [10] = molecular target: T1, Polyadenylate-binding protein 1; assay: MLLE binding blockers, Cy5 peptide tracer – biochemical, fluorescence polarization, Cy5-PAM2 peptide, secondary, miRNA deadenylation inhibitor project, dose response (AID 602260); assay type: functional; settings: read-out: IC50_Mean
# [11] = A cytotoxicity screen of small molecule inhibitors of the PhoP region in Salmonella typhi identified in the primary screen. [Related pubchem assays: 1850, 1864, 1985 ]; assay type: functional
# [12] = system: Staphylococcus aureus; assay: Inhibitors of Bacterial Quorum Sensing Structure Activity Relationship (SAR) Analysis: Dose Response Assay. [Related pubchem assays: 700, 527 ]; assay type: functional, organism-based
# [13] = molecular target: Transitional endoplasmic reticulum ATPase (Homo sapiens, UniProt P55072); assay: p97 ATPase inhibitors, dose response, biochemical (AID 1534)
# Transitional endoplasmic reticulum ATPase (Homo sapiens, UniProt P55072), sequence (P55072 whole entry): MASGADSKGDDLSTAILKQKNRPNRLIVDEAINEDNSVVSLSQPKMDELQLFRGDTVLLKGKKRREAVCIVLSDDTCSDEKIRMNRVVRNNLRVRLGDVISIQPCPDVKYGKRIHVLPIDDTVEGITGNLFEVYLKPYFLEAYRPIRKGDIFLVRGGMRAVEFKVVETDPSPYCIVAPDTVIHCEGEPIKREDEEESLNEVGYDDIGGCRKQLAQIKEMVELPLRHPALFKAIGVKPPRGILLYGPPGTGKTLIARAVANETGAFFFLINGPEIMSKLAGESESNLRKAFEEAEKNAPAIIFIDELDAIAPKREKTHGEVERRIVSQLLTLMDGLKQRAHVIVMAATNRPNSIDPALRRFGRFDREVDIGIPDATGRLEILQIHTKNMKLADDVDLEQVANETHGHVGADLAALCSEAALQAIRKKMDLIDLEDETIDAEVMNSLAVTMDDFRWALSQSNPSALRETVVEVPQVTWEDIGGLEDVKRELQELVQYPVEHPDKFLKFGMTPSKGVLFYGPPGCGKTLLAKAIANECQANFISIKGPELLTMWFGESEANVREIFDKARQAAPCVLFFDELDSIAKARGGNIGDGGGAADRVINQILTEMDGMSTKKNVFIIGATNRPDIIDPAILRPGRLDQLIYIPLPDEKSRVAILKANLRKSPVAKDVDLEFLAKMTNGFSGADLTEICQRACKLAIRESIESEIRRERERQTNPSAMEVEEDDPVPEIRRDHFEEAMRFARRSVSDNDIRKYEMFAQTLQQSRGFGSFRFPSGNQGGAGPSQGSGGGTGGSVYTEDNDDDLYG
# [14] = molecular target: Transitional endoplasmic reticulum ATPase (Homo sapiens, UniProt P55072, C522A); assay: C522A mutant p97 ATPase inhibitors, dose response, counter-screen for p97 inhibitor project, biochemical, luminescence (AID 1544)
# [15] = A Cell Based Secondary Assay To Explore Cytotoxicity of Compounds that Sensitize Mycobacterium Tuberculosis to Beta-Lactam Antibiotics.; assay type: functional
# [16] = system: H9c2; assay: cells; assay type: functional, cell-based; settings: Rattus norvegicus, H9c2, Myocardium;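 also: confirmatory concentration-response retest of ultra-high-throughput screening hits for modulation of myocardial damage; cell death induced by hydrogen peroxide oxidative stress; compound pretreatment for 60 min then peroxide exposure for 2 h; potency is for protecting the cells against peroxide damage rather than for killing them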
# [17] = molecular target: T2, Alkaline phosphatase, tissue-nonspecific isozyme (Homo sapiens, UniProt P05186)
# T2 sequence (P05186 whole entry): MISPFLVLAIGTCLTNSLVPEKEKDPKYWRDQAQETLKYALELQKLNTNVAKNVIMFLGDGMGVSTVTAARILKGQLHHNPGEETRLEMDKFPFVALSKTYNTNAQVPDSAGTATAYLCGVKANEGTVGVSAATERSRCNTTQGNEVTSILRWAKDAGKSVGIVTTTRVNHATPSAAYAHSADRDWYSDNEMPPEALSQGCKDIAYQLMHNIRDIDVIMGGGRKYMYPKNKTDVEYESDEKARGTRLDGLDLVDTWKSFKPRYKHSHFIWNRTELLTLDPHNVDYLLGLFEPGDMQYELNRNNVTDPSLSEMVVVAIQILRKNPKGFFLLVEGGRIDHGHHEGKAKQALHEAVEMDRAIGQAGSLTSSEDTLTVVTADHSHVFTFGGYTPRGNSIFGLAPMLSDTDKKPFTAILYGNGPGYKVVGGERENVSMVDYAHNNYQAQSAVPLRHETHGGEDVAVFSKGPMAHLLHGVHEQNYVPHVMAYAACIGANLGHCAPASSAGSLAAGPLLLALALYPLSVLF
# [18] = molecular target: Acyl-homoserine lactone acylase PvdQ (Pseudomonas aeruginosa (strain LESB58), UniProt Q9I194); assay: PvdQ acylase enzyme activity blockers – biochemical, fluorescence, plate reader and imaging, cherry-picks, dose response (AID 493231)
# Acyl-homoserine lactone acylase PvdQ, sequence (Q9I194 24-193 limits assumed): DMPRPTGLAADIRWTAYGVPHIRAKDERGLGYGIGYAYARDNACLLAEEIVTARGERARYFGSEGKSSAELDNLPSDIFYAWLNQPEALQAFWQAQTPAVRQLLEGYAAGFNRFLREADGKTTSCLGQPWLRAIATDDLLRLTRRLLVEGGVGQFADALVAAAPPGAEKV
# Acyl-homoserine lactone acylase PvdQ, sequence (Q9I194 217-762 limits assumed): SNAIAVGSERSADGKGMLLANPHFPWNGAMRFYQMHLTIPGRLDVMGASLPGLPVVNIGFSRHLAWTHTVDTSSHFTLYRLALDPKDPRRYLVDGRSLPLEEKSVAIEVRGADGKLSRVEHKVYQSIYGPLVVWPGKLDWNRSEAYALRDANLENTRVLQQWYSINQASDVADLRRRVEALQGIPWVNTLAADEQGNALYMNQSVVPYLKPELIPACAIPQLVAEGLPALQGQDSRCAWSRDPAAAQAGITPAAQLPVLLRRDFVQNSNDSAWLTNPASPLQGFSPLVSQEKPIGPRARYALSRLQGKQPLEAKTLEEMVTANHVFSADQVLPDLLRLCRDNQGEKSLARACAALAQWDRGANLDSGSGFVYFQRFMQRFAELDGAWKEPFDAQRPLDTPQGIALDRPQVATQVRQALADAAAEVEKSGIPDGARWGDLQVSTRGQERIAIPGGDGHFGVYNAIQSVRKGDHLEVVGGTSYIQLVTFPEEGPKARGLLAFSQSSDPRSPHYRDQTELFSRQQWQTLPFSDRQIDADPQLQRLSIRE
smiles,measurement,setting,value
CN1CCN(C(c2ccccn2)c2cc(Cl)c3cccnc3c2O)CC1 (stereo not drawn),EC50,[1],24.9 µM (active)
same,AC50,[2],6.54 µM (active)
same,IC50,[3],> 100 µM (active)
same,CC50,[4],37.2 µM (active)
same,IC50,[5],47.6 µM (not active)
same,IC50,[6],> 73.5 µM (inactive)
same,IC50,[7],4.17 µM (active)
same,IC50,[8],> 66 µM (inactive)
same,EC50,[9],1.42 µM (active)
same,IC50,[10],> 66 µM (inactive)
Cc1nn(-c2cc(N3CCNCC3)ccc2[N+](=O)[O-])c(=O)c2ccccc12,EC50,[11],> 50 µM (active)
O=C(NCC(c1cccnc1)N1CCN(c2ccccc2F)CC1)c1cccc(Cl)c1 (stereo not drawn),IC50,[12],597 nM (active)
Fc1ccccc1-c1nc(NCc2ccccc2)c2ccccc2n1,IC50,[13],> 50 µM (not active)
same,IC50,[14],> 50 µM (not active)
Cc1ccc(C)c(NC(=O)C(Sc2nc3ccccc3c(=O)n2CC(C)C)c2ccccc2)c1 (stereo not drawn),CC50,[15],21.3 µM (active)
same,IC50,[16],36.3 µM (inactive)
same,EC50,[17],> 100 µM (not active)
N#CC(c1ccc(Cl)nn1)c1ccccc1Cl (stereo not drawn),AC50,[18],944 nM (active)
